From patent US7507739B2, “6-[(substituted)phenyl]triazolopyrimidines as anticancer agents” (Wyeth, priority 2003, dated 2009)

What was measured:
KB cells = experiment: MTS cytotoxicity test with KB cells; assay type: cell-based; conditions: Homo sapiens; KB cells, MTS; read-out: IC50 KB
How it was run: (§1)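 KB (no P-glycoprotein), KB-8-5 (moderate) and KB-V1 (very high) cells seeded at 1000/well, dosed after ~24 hr with nine 2-fold dilutions in quadruplicate, cultured three days at 37 °C. MTS formazan absorbance normalised to a time-0 plate; IC50 is the concentration giving colour yield halfway between maximum and minimum.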

tubulin heterodimer = experiment: Competitive binding test, [3H]colchicine; parameters: species or system bovine; conditions: [3H]colchicine 50 nM
Experimental: Medium is RPMI-1640 with L-glutamine, supplemented with 10% heat-inactivated fetal calf serum, 100 units/ml penicillin, and 100 μg/ml streptomycin (Gibco, Grand Island, N.Y.). Microtubule-associated protein (MAP)-rich tubulin, containing about 70% tubulin and 30% MAPs (#ML113), and highly purified tubulin (>99% pure, #TL238), both from bovine brain, are obtained from Cytoskeleton, Inc., Denver, Colo. PEM buffer (80 mM piperazine-N,N′-bis[2-ethanesulfonic acid], pH 6.9, 1 mM ethylene glycol-bis(β-aminoethyl ether)-N,N,N′,N′-tetraacetic acid, 1 mM magnesium chloride) and guanosine 5′-triphosphate (GTP) are also obtained from Cytoskeleton. [3H]paclitaxel, specific activity 14.7 Ci/mmol, is purchased from Moravek Biochemicals (Brea, Calif.). [^3H]vinblastine, specific activity 9.60 Ci/mmol and MicroSpin G-50 columns are obtained from Amersham Biosciences (Piscataway, N.J.). […] Other reagents are obtained from Sigma (St. Louis, Mo.).
The binding of examples of this invention to highly purified tubulin is studied by competitive inhibition methods. […] To study possible competition at the taxane site, on the other hand, polymerized tubulin (microtubules) is used because paclitaxel binds preferentially to microtubules.
Highly purified tubulin is dissolved in PEM buffer without GTP and used at a final concentration of 1.0 to 1.3 mg/ml (10 to 13 μM). […] These solutions are incubated at 24° for 1 hr and then applied to MicroSpin G-50 columns which are centrifuged for 2 min at 3000 rpm in an Eppendorf 5415C microfuge. An aliquot of each column effluent (containing tubulin and bound radioligand) is mixed with scintillation fluid and counted in a liquid scintillation spectrometer. […] The ability of the competitor to inhibit the binding of the radioligand is expressed as a percentage of control binding in the absence of any competitor.

KB-V1 cells = experiment: MTS cytotoxicity test with KB-V1 cells (very high P-glycoprotein); assay type: cell-based, human; conditions: for Ratio VI/KB: IC50 on KB VI cells/IC50 on KB cells
How it was run: as §1

HL-60/ADR cells = experiment: MTS cytotoxicity test with HL-60/ADR cells (MRP1); assay type: cell-based, human
How it was run: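 Cells plated at 1000/well for about 24 h, then exposed for three days at 37 °C to nine 2-fold serial dilutions of compound in quadruplicate. MTS formazan absorbance normalised to a time-0 plate; IC50 is the concentration giving half-maximal relative colour yield. HL-60/ADR overexpresses MRP1.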

S1 cells = experiment: MTS cytotoxicity test with S1 cells; assay type: cell-based; conditions: Homo sapiens
How it was run: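 S1 colon carcinoma (LS174T subclone) and MXR-overexpressing S1-M1 cells at 1000/well, dosed after ~24 hr with nine 2-fold dilutions, then cultured three days at 37°. MTS formazan absorbance normalized to a time-0 plate; IC50 taken at half-maximal color yield.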

In the case of `CC[C@]1(O)C[C@H]2CN(CCc3c([nH]c4ccccc34)[C@@](C(=O)OC)(c3cc4c(cc3OC)N(C=O)[C@H]3[C@@](O)(C(=O)OC)[C@H](OC(C)=O)[C@]5(CC)C=CCN6CC[C@]43[C@@H]65)C2)C1` [Vincristine, reference compound], the IC50 (KB cells) is reported as 6.4 nM, the “[3H]Colchicine binding, percent of control without competitor, Mean” value (tubulin heterodimer) is reported as 99% and the IC50 (KB-V1 cells; Homo sapiens, KB-V1 cells, MTS) is reported as greater than 1000 nM. For the same molecule, the “Ratio VI/KB” value (KB-V1 cells) was greater than 156, the “Ratio VI/KB” value (KB-V1 cells; listed as vincristine) was greater than 156 and the IC50 (HL-60/ADR cells; Homo sapiens, HL60/ADR, HL-60/ADR cells, MTS, read-out: IC50 HL-60/ADR) was 20 nM. It also gave a Ratio (HL-60/ADR cells; IC50 on HL-60/ADR cells/IC50 on HL-60 cells) of 8.2 and an IC50 (S1 cells) of 5.6 nM.
